Experiment [1] has as its system apomorphine induced delay in gastric emptying. Put plainly: Increase in gastric emptying - reversal of apomorphine induced delay in gastric emptying of a test meal. The following applies: S.C.; rats with chronic gastric fistula; Apomorphine HCl 5 mg/kg subcutaneously 15 minutes prior; active doses (mg/kg). It counts as in vivo, rat. The procedure: (§1) 1. Compounds prepared in the Examples were tested for the following pharmacological activities in the rat:
(b) Increase in gastric emptying-reversal of apomorphine induced delay in gastric emptying of a test meal.
Rats equipped with chronic gastric fistula were used and it was through this that 5 ml of a test meal (5 ml phosphate buffer at pH 9) was administered and recovered. The % recovery of the standard meal after remaining in the stomach for 10 minutes was taken as an index of gastric emptying. Delay in gastric emptying was induced by the administration of Apomorphine HCl (5 mg/kg subcutaneously) and was given 15 minutes prior to the administration of the Compound. The % recoveries of the test meal was determined at 15-25 and 45-55 minutes post dosing with the Compound and compared with vehicle only dosed animals set up simultaneously. Six animals were used for each group.

The subject of a further experiment is intragastric pressure. The experiment is described as follows: Increase in intragastric pressure. It counts as in vivo, rat. The settings on record: conscious restrained rats with gastric fistula, 40 minutes after administration, active doses (mg/kg). The procedure: as §1
(a) Increase in intragastric pressure
Intragastric pressure changes were recorded from previously starved conscious and restrained rats using a saline filled catheter inserted into the lumen of the stomach via a permanent gastric fistula. The catheter was connected to a physiological pressure transducer and pressure changes recorded on a hot wire pen recorder. In each animal a pre-dose period of 40 minutes was allowed to obtain a measure of spontaneous activity. An index of activity was obtained by measuring the average height of pressure waves during 10 minute periods. Values for 4 such periods were obtained during assessment of spontaneous activity and for the 40 minute period after the administration of the Compounds. Student "t" test was applied to the difference in average values obtained for spontaneous and post Compound activity.

In experiment [2] the test system is emetic response to apomorphine hydrochloride. The experiment is described as follows: Abolition of the emetic response to apomorphine hydrochloride. The class given is in vivo. The settings on record: Canis lupus familiaris, sc; S.C.; dog; apomorphine hydrochloride 0.1 mg/kg subcutaneously; active doses (mg/kg); read-out: Anti-Emetic ED 50. The procedure:
2. Compounds were also tested for abolition of the emetic response to apomorphine hydrochloride (0.1 mg/kg subcutaneously) in the dog

In the next experiment the test system is dopamine receptor. The experiment is described as follows: Inhibition of stereotype behaviour induced by apomorphine. It counts as in vivo, rat. The following applies: for Inhibition of Stereo-Type Behaviour, active dose: S.C., rat, active doses (mg/kg); for Inhibition of Stereo-Type Behaviour, number of rats: at 50mg S.C. The procedure:
as §1
(c) Inhibition of stereotype behaviour induced by apomorphine.
This is indicative of dopamine receptor blockade in the central nervous system.
The method of Ernst A. M. (1967) Pyschopharmocologia (Berl.) 10 pp. 316-323 was followed.

Results on 8 compounds are retold here after patent publication US4213983A, “Treating gastro-intestinal disorders and emesis with n-(heterocyclic substituted) benzamides” (Beecham Group Limited, priority 1976, dated 1980).

Structures are written as SMILES.

Turning to `COc1cc(N)c(Cl)cc1C(=O)NC1CCN2CCCCC2C1` (stereo not drawn) [Example 2, 4-Amino-5-chloro-2-methoxy-N-(2-quinolizidinyl)-benzamide], the “Increase in Gastric Emptying, active dose” value (shortened to “Increase in Gastric Emptying”) in experiment [1] was determined as 25 mg. The “Increase in Intra-Gastric Pressure, active dose” value in the experiment on intragastric pressure (P.O.) is 50 mg; in the experiment with intragastric pressure (S.C.), 2.5 mg. For the same compound, in experiment [2], the ED50 came out at 0.7 mg/kg. Further, the “Inhibition of Stereo-Type Behaviour, active dose” value (from here on “Inhibition … active dose”) with dopamine receptor is on record as 15 mg.
For the compound `COc1cc(N)c(Cl)cc1C(=O)NC1CCN2CCCC2C1` (stereo not drawn) [Example 4, 4-Amino-5-chloro-2-methoxy-N-(7-octahydro-indolizinyl)-benzamide], the “Increase in Gastric Emptying” value in experiment [1] is reported as 50 mg. The “Increase in Intra-Gastric Pressure, active dose” value in the experiment with intragastric pressure (S.C.) is 5 mg. Also, the ED50 in experiment [2] is less than 2 mg/kg. For the same compound, in the experiment on dopamine receptor, the “Inhibition … active dose” value came to 50 mg and the “Inhibition of Stereo-Type Behaviour, number of rats” value was 4 out of 7 rats.
Regarding `COc1cc(N)c(Cl)cc1C(=O)NC1CCC2CCCCN2C1` (stereo not drawn) [Example 6, 4-Amino-5-chloro-2-methoxy-N-(3-quinolizidinyl)-benzamide], in experiment [2], the ED50 came out at 1.4 mg/kg. In addition, in the experiment on dopamine receptor, the “Inhibition … active dose” value amounted to 50 mg and the “Inhibition of Stereo-Type Behaviour, number of rats” value is given as 3 out of 7 rats.
On to `COc1cc(N)c(Cl)cc1C(=O)NC1CCCN2CCCCC12` (stereo not drawn) [Example 8b, 4-Amino-5-chloro-2-methoxy-N-(1-quinolizidinyl)-benzamide], for which the ED50 in experiment [2] is less than 2 mg/kg. Also, the “Inhibition … active dose” value with dopamine receptor was determined as 50 mg.
For the compound `COc1cc(N)c(Cl)cc1C(=O)NC1CCN2CCc3ccccc3C2C1` (stereo not drawn) [Example 10, 4-Amino-5-chloro-N-[2-(2H-benzo[a]-quinolizine-1,3,4,6,7,11b-hexahydro)]-2-methoxy-benzamide], the “Increase in Gastric Emptying” value in experiment [1] worked out at 50 mg.
Take `COc1cc(N)c(Cl)cc1C(=O)NN1CCN2CCCCC2C1` (stereo not drawn) [Example 12]: in experiment [2], the ED50 came to 2 mg/kg.
Turning to `COc1cc(N)c(Cl)cc1C(=O)NC1CC2CCCCN2C1` (stereo not drawn) [Example 14, 4-Amino-5-chloro-2-methoxy-N-(2-octahydroindolizinyl)-benzamide], the “Increase in Gastric Emptying” value in experiment [1] stood at 50 mg. Besides, the ED50 in experiment [2] was less than 2 mg/kg. In addition, the “Inhibition … active dose” value with dopamine receptor was found to be 50 mg.
In the case of `COc1cc(N)c(Cl)cc1C(=O)NC1CCN2C(C)CCCC2C1` (stereo not drawn) [Example 16, 4-Amino-5-chloro-2-methoxy-N-(6-methyl-2-quinolizidinyl)-benzamide], the “Increase in Intra-Gastric Pressure, active dose” value in the experiment with intragastric pressure (S.C.) came out at 1 mg.
